Test results: patent publication US10017585B2, “Methods and compositions for promoting hair growth” (Momenta Pharmaceuticals, Inc., priority 2010, dated 2018)

Test system: female BALB/c mice
Assay: Hair regrowth score in shaved mice, MONC402 in combination with chemotherapy, 27 days
Format: in vivo
Procedure: The backs of eight week old female BALB/c mice were shaved. Osmotic pumps containing either saline or MONC402 were implanted into 64 mice (32 saline, 32 MONC402). Mice were further divided into groups receiving either saline or Docetaxel (10 mg/kg) once weekly ip starting 13 days after pump implant. Additionally, there was one group of naïve mice (n=4) as well as one group of mice receiving chemotherapy alone (Docetaxel, 10 mg/kg, once weekly ip starting 6 days after pump implant, n=16) which were not subject to shaving or pump implant. Staples used to close the implantation wound were removed 7 days later. Twenty seven days after pump implant, mice were scored for hair growth over the shaved area.

[1] = Docetaxel (10 mg/kg weekly ip) + Saline pump, 27 days

SMILES: CC(=O)O[C@@]12CO[C@@H]1C[C@H](O)[C@@]1(C)C(=O)[C@H](O)C3=C(C)[C@@H](OC(=O)[C@H](O)[C@@H](NC(=O)OC(C)(C)C)c4ccccc4)C[C@@](O)([C@@H](OC(=O)c4ccccc4)[C@H]21)C3(C)C [Docetaxel]
- Number of animals scored 4: full growth (indistinguishable from unshaved) (Docetaxel 10 mg/kg once weekly ip alone, No shaving or pump implant): 16/16
- Number of animals scored 1.5 [1]: 1/16
- Number of animals scored 2: light growth [1]: 7/16
- Number of animals scored 2.5 [1]: 2/16
- Number of animals scored 3: patchy/heavy growth [1]: 6/16
